The source of these data is patent publication US8084399B2, “Process for screening of a binding amphiphilic peptides specific for hairpin RNA” (priority 2009, dated 2011).

pKd: −log10 of the molar value. Where no end group is shown, it is not given here. [ ]: non-standard residue; d: D form. Orn = NCCC[C@H](N)C(=O)O; Dab = NCC[C@H](N)C(=O)O; Dap = NC[C@H](N)C(=O)O

Series [1] has as its target TAR hairpin RNA. In words: Fluorescence anisotropy competition with Rev-N-rhodamine probe, binding to TAR hairpin RNA. On the set-up: species or system HIV. To be noted: for pKd: fluorescence anisotropy, 20° C., pH 7.4, read-out: Dissociation constant, TAR. Here is the method: (§1) Binding force to each target hairpin RNA (IRES, RRE, TAR and 16S A-site) was measured by fluorescence polarization using alanine scanned peptide library (1b-1h).
(§2) Particularly, […] of each target RNA was prepared at the concentration of 10 mM, which stood at 65° C. for 10 minutes and then cooled down slowly at room temperature, leading to folding. The amphiphilic peptide was prepared respectively at the concentration of […], which were maintained at 0° C. As a probe, rev peptide labeled with rhodamine (Rev-N-rhodamine) emitting […] fluorescence was prepared at the concentration of 10 mM. Buffer was composed of 140 mM NaCl, 5 mM KCl, 1 mM MgCl2, and 20 mM HEPES (N-2-Hydroxyethylpiperazine-N′-2-Ethanesulfonic Acid, pH 7.4). Fluorescence Anisotropy was measured using AMINCO-Bowman Series Luminescence Spectrometer at 20° C. Ten nM of the probe was added in […] of buffer, to which target RNA was added to induce interaction between the probe and the target RNA. At that time, anisotropy value increased. Then, the synthesized peptide competing with the probe for binding site was added thereto with increasing the concentration slowly. Changes of fluorescence polarization were measured until fluorescence polarization reached as low as the beginning. Considering the concentration and amount of the peptide added, binding force to target RNA was calculated. That is, the binding strength between target RNA and peptide was determined according to the following KaleidaGraph. [Peptide]=Kd(Amax−A)/[Kd(A−A0)+1]×[RNA]−Kd(A−A0)^2[Probe]0/(Amax−A)(Amax−A0)
(§3) Herein, [Peptide] indicates the concentration of peptide, [RNA] indicates the concentration of target RNA, and [Probe]0 indicates the concentration of probe. A is the value of fluorescence anisotropy of sample, Amax is the value of totally bound tracer, and A0 is the value of totally free tracer.

Series [2] addresses RRE hairpin RNA. In words: Fluorescence anisotropy competition with Rev-N-rhodamine probe, binding to RRE hairpin RNA. Also on record: species or system HIV. Particulars: 20° C., pH 7.4, read-out: Dissociation constant, RRE. The protocol:
as §1, §2, §3

A short description of series [3]: Circular dichroism (CD), percentage of alpha-helix. The class given is physicochemical. Particulars: CD at 20° C., condition not given; for Alpha-helical rate (%), second value of pair: value after the slash; for Alpha-helical rate (%), first value of pair: value before the slash. Here is the method: To investigate alpha-helix of the amphiphilic peptide (1a-1h), circular dichroism (CD) was performed. Particularly, CD was measured at 20° C. by using JASCO model J715 spectropolarimeter. Scanning was performed at 190-250 nm three times (bandwidth: 1 nm, datapitch: 0.5 nm, speed: 100 nm/min), which were averaged to obtain CD data. Spectrum was corrected by measuring background spectrum. CD signal was recorded after modulating thereof with mean residue ellipticity [Q]. Percentage (%) of alpha-helix(fn) was calculated by the following formula. [Q]=Qobs[MRW/(10lc)]
MRW=mean residue weight (dividing molecular weight by the number of peptide bond, l=pathway length (cm), c=concentration (mg/mL). fn=([Q]222−[Q]coil)/([Q]helix−[Q]coil) [Q]helix=−40,000[…]+100t [Q]coil=640−45t
[Q]222=mean residue ellipticity at 222 nm (deg cm2 mol-1), [Q]helix=ellipticity of peptide having complete helical structure, [Q]coil=ellipticity of peptide having complete random coil structure, n=number of amino acid, t=° C.

The target of series [4] is 16S ribosomal RNA A-site. Description: Fluorescence anisotropy competition with Rev-N-rhodamine probe, binding to 16S A-site. To be noted: 20° C., pH 7.4, read-out: Dissociation constant, 16S A-site. Here is the method: as §1, §2, §3
Series [5] concerns IRES domain IV hairpin. Description: Fluorescence anisotropy competition with Rev-N-rhodamine probe, binding to IRES hairpin. Also on record: species or system HCV. To be noted: for differentiation coefficient (IRES): (mean Kd to other hairpin RNA)/(Kd to one hairpin RNA); for pKd: fluorescence anisotropy, 20° C., pH 7.4, read-out: Dissociation constant, IRES. The protocol:
as §1, §2, §3

[6] abbreviates: compared with the original peptide.

For the substance “LAKLLKLLKKLLKLKG [1b, alanine scanned first generation peptide]”, the pKd was 7.80 in series [1], 6.85 in series [2], 6.80 in series [4] and 7.28 in series [5]. In addition, the “Alpha-helical rate (%), second value of pair” value in series [3] worked out at 44%. In addition, in series [3], the “Alpha-helical rate (%), first value of pair” value stood at 9%. For the same substance, the “differentiation coefficient (IRES)” value in series [5] worked out at 2.0.
Regarding “LKALLKLLKKLLKLKG [1c, alanine scanned first generation peptide]”, the pKd is 7.06 in series [1], 7.25 in series [2], 7.04 in series [4] and 7.21 in series [5]. In series [3], the “Alpha-helical rate (%), second value of pair” value turned out to be 42%. The “Alpha-helical rate (%), first value of pair” value in series [3] stood at 10%. Moreover, the “differentiation coefficient (IRES)” value in series [5] was 1.3.
As for “LKKLLALLKKLLKLKG [peptide 1d, alanine scanned first generation peptide]”, the “binding strength to TAR, in words” value in series [1] (setting [6]) is reported as “three fold binding strength”. The pKd in series [1] is 6.82; in series [2], 6.82; in series [4] it was 6.80; in series [5] it was 6.82. Besides, in series [3], the “Alpha-helical rate (%), second value of pair” value is given as 47%. In addition, the “Alpha-helical rate (%), first value of pair” value in series [3] stood at 12%. Besides, the “differentiation coefficient (IRES)” value in series [5] was found to be 1.0. In series [5] (setting [6]), the “binding strength to IRES, in words” value is on record as “reduced binding strength”.
Consider “LKKLLDabLLKKLLDapLAG (LKKLL[Dab]LLKKLL[Dap]LAG-NH2; N-terminus assumed; SMILES CC(C)C[C@H](NC(=O)[C@H](CN)NC(=O)[C@H](CC(C)C)NC(=O)[C@H](CC(C)C)NC(=O)[C@H](CCCCN)NC(=O)[C@H](CCCCN)NC(=O)[C@H](CC(C)C)NC(=O)[C@H](CC(C)C)NC(=O)[C@H](CCN)NC(=O)[C@H](CC(C)C)NC(=O)[C@H](CC(C)C)NC(=O)[C@H](CCCCN)NC(=O)[C@H](CCCCN)NC(=O)[C@@H](N)CC(C)C)C(=O)N[C@@H](C)C(=O)NCC(N)=O) [2l, second generation peptide, hydrophilic face modified]”, for which the pKd in series [1] is 7.80; in series [2], 7.85; in series [4] it was 7.85; in series [5], 8.96. For the same substance, in series [3], the “Alpha-helical rate (%), second value of pair” value is given as 50%. Moreover, in series [3], the “Alpha-helical rate (%), first value of pair” value was found to be 40%. The “differentiation coefficient (IRES)” value in series [5] is 13.
As to “LKKLLDabLLKKLLKLAG (LKKLL[Dab]LLKKLLKLAG-NH2; N-terminus assumed; SMILES CC(C)C[C@H](NC(=O)[C@H](CCCCN)NC(=O)[C@H](CC(C)C)NC(=O)[C@H](CC(C)C)NC(=O)[C@H](CCCCN)NC(=O)[C@H](CCCCN)NC(=O)[C@H](CC(C)C)NC(=O)[C@H](CC(C)C)NC(=O)[C@H](CCN)NC(=O)[C@H](CC(C)C)NC(=O)[C@H](CC(C)C)NC(=O)[C@H](CCCCN)NC(=O)[C@H](CCCCN)NC(=O)[C@@H](N)CC(C)C)C(=O)N[C@@H](C)C(=O)NCC(N)=O) [2b, second generation peptide, hydrophilic face modified]”, the pKd is 8.14 in series [1], 8.00 in series [2], 7.89 in series [4] and 8.80 in series [5]. Moreover, the “Alpha-helical rate (%), second value of pair” value in series [3] is reported as 63%. Further, in series [3], the “Alpha-helical rate (%), first value of pair” value is reported as 23%. For the same substance, the “differentiation coefficient (IRES)” value in series [5] is recorded as 6.4.
For “LKKLLDabLLKKLLKWAG (LKKLL[Dab]LLKKLLKWAG-NH2; N-terminus assumed; SMILES CC(C)C[C@H](NC(=O)[C@H](CC(C)C)NC(=O)[C@H](CCCCN)NC(=O)[C@H](CCCCN)NC(=O)[C@H](CC(C)C)NC(=O)[C@H](CC(C)C)NC(=O)[C@H](CCN)NC(=O)[C@H](CC(C)C)NC(=O)[C@H](CC(C)C)NC(=O)[C@H](CCCCN)NC(=O)[C@H](CCCCN)NC(=O)[C@@H](N)CC(C)C)C(=O)N[C@@H](CCCCN)C(=O)N[C@@H](Cc1c[nH]c2ccccc12)C(=O)N[C@@H](C)C(=O)NCC(N)=O) [3e, third generation peptide, both faces modified]”, the pKd was 7.85 in series [1], 7.66 in series [2], 7.80 in series [4] and 9.21 in series [5]. Moreover, in series [3], the “Alpha-helical rate (%), second value of pair” value was 45%. In addition, the “Alpha-helical rate (%), first value of pair” value in series [3] worked out at 39%. For the same substance, the “differentiation coefficient (IRES)” value in series [5] came out at 28.
Turning to “LKKLLDabLLOrnKLLDapLAG (LKKLL[Dab]LL[Orn]KLL[Dap]LAG-NH2; N-terminus assumed; SMILES CC(C)C[C@H](NC(=O)[C@H](CN)NC(=O)[C@H](CC(C)C)NC(=O)[C@H](CC(C)C)NC(=O)[C@H](CCCCN)NC(=O)[C@H](CCCN)NC(=O)[C@H](CC(C)C)NC(=O)[C@H](CC(C)C)NC(=O)[C@H](CCN)NC(=O)[C@H](CC(C)C)NC(=O)[C@H](CC(C)C)NC(=O)[C@H](CCCCN)NC(=O)[C@H](CCCCN)NC(=O)[C@@H](N)CC(C)C)C(=O)N[C@@H](C)C(=O)NCC(N)=O) [2m, second generation peptide, hydrophilic face modified]”, the pKd in series [1] was 7.51; in series [2] it was 7.72; in series [4], 7.89; in series [5], 8.37. The “Alpha-helical rate (%), second value of pair” value in series [3] is given as 69%. Further, the “Alpha-helical rate (%), first value of pair” value in series [3] is given as 49%. For the same substance, in series [5], the “differentiation coefficient (IRES)” value was found to be 4.9.
For the substance “LKKLLDabLLOrnKLLKLAG (LKKLL[Dab]LL[Orn]KLLKLAG-NH2; N-terminus assumed; SMILES CC(C)C[C@H](NC(=O)[C@H](CCCCN)NC(=O)[C@H](CC(C)C)NC(=O)[C@H](CC(C)C)NC(=O)[C@H](CCCCN)NC(=O)[C@H](CCCN)NC(=O)[C@H](CC(C)C)NC(=O)[C@H](CC(C)C)NC(=O)[C@H](CCN)NC(=O)[C@H](CC(C)C)NC(=O)[C@H](CC(C)C)NC(=O)[C@H](CCCCN)NC(=O)[C@H](CCCCN)NC(=O)[C@@H](N)CC(C)C)C(=O)N[C@@H](C)C(=O)NCC(N)=O) [2j, second generation peptide, hydrophilic face modified]”, the pKd is 8.00 in series [1], 7.68 in series [2], 7.85 in series [4] and 8.62 in series [5]. Further, in series [3], the “Alpha-helical rate (%), second value of pair” value is 57%. The “Alpha-helical rate (%), first value of pair” value in series [3] is 49%. Also, the “differentiation coefficient (IRES)” value in series [5] came to 6.3.
On to “LKKLLDabWLKKLLKLAG (LKKLL[Dab]WLKKLLKLAG-NH2; N-terminus assumed; SMILES CC(C)C[C@H](NC(=O)[C@H](CCCCN)NC(=O)[C@H](CC(C)C)NC(=O)[C@H](CC(C)C)NC(=O)[C@H](CCCCN)NC(=O)[C@H](CCCCN)NC(=O)[C@H](CC(C)C)NC(=O)[C@H](Cc1c[nH]c2ccccc12)NC(=O)[C@H](CCN)NC(=O)[C@H](CC(C)C)NC(=O)[C@H](CC(C)C)NC(=O)[C@H](CCCCN)NC(=O)[C@H](CCCCN)NC(=O)[C@@H](N)CC(C)C)C(=O)N[C@@H](C)C(=O)NCC(N)=O) [3a, third generation peptide, both faces modified]”, for which the pKd was 7.72 in series [1], 7.66 in series [2], 7.89 in series [4] and 8.74 in series [5]. In addition, the “Alpha-helical rate (%), second value of pair” value in series [3] came out at 55%. Further, in series [3], the “Alpha-helical rate (%), first value of pair” value is recorded as 29%. In addition, the “differentiation coefficient (IRES)” value in series [5] is 10.
